# Measurements as given in paper PMC7529580, “Modified heptapeptide from tau binds both tubulin and microtubules” (Thoracic Cancer, 2020).
# pKd: −log10 of the molar value. Entries after “also recorded” stand apart in the source; their conditions may differ. Where two headings read alike, the source gives them in different places. Non-standard residues stand in square brackets, D forms with d. No end group written: not given here. *: point of attachment. FITC = O=C1OC2(c3ccc(O)cc3Oc3cc(O)ccc32)c2ccc(NC(=S)*)cc21; Ahx = NCCCCCC(=O)O
# Experiments:
# [1] = system: microtubules in living cells; settings: cited from earlier work; for labeling of microtubules in living cells (in words): microtubule‐targeting agents
# Source text: The property of microtubules is regulated by a number of microtubule‐binding proteins, ^8 , ^9 , ^10 , ^11 , ^12 , ^13 of which tau is well‐characterized because of its abundance, particularly in brain tissues. ^14 , ^15 , ^16 The N‐terminus of tau is a projection domain, followed by a proline‐rich region and a C‐terminal microtubule‐assembly domain. ^17 The microtubule‐assembly domain, which contains four imperfect sequence repeats, is responsible for the binding of tau to microtubules. […] In this study, we tested another tau‐derived peptide for its ability to monitor microtubules.
# microtubules = system: microtubules; parameters: method as in 2 sources, ref 26 = [26]; PMID 9190213; doi:10.1091/mbc.8.2.353; 26 Goode BL , Denis PE , Panda D et al Functional interactions between the proline‐rich and repeat regions of tau enhance microtubule binding and assembly . Mol Biol Cell 1997; 8 : 353 – 65 . 9190213 ||| ref 27 = [27]; PMID 19186939; doi:10.1021/bm801224q; 27 Cao B , Mao C . Identification of microtubule‐binding domains on microtubule‐associated proteins by major coat phage display technique . Biomacromolecules 2009; 10 : 555 – 64 . 19186939 10.1021/bm; settings: cited from earlier work
# polymerized microtubules = experiment: Labeling of polymerized microtubules in solution (fluorescence microscopy); format: binding; settings: 1 μM peptide added to polymerized rhodamine‐labeled microtubules, five minutes incubation, fluorescence microscope
# Description: (§1) Tubulin from HeLa cells was purified using a TOG‐based affinity column. ^20 Briefly, cells were resuspended in an equal volume of BRB80 buffer containing 3 μL of benzonase and 1 mM DTT. Cells were lysed on ice and centrifuged at 40 000 rpm for 30 minutes at 4°C. The supernatant was filtered through a 0.45 μm Milliex‐HV polyvinylidene fluoride membrane, and then loaded into a TOG column preequilibrated with BRB80 buffer. The tubulin was eluted with BRB80 buffer, and the crude extract was further purified through the cycle of polymerization and depolymerization as previously described. ^22
# Rhodamine‐labeled tubulin (5%) was mixed into tubulin purified from HeLa cells in the PEMG buffer (100 mM PIPES, 1 mM EGTA, 1 mM MgSO4, 1 mM GTP, pH 6.8). Next, the mixture was placed on ice for five minutes and then incubated at 37°C for 30 minutes. The polymerized reaction was terminated by adding 400 μL of PEMG buffer. […] The pellet was resuspended with 300 μL of the PEMG buffer supplemented with 20 μM paclitaxel and then added into a slide chamber for imaging under a fluorescence microscope.
# Figure 3 The peptide was able to label the microtubules in solution. (a) The tubulin was purified from HeLa cells through cycle process, and the purity was determined by SDS‐PAGE. […] After five minutes incubation, the microtubule was imaged under a fluorescence microscope. […]
# HeLa cells = experiment: Living cell assay: entry of peptide into cells; format: cell-based; settings: 15 μM peptide, 30 minutes, Hoechst 33258, fluorescence microscope
# Description: (§2) HeLa cells were cultured in Dulbecco's modified Eagle's medium supplemented with 10% fetal bovine serum and maintained at 37°C in a humidified 5% CO2 environment. The peptide was added into the Hela cells, and incubated for 30 minutes. The nuclei were stained with Hoechst 33258 (Beyotime). Cells were imaged with a fluorescence microscope (Leica, Germany).  Figure 4 Examination of the peptide in tracing microtubules in living cells. HeLa cells were treated with 15 μM of the peptide or control peptide, together with Hoechst 33258, and 30 minutes later, the cells were imaged with a fluorescence microscope. Scale bar: 5 μm.
# [2] = system: microtubules in HeLa cells; experiment: Living cell assay: tracing of microtubules; format: cell-based; settings: 15 μM peptide, 30 minutes, Hoechst 33258, fluorescence microscope
# Description: as §2
# tubulin dimers = experiment: Microscale thermophoresis affinity determination; format: binding; settings: 1 μM peptide, series dilution of tubulin
# Description: All microscale thermophoresis measurements were performed using Monolith NTTM hydrophobic capillaries and a Monolith NT.115 instrument (NanoTemper) according to the manufacturer's instructions. The peptide was prepared with varying concentrations for pretest to ensure final proper concentration. The fluorescence intensity value should be more than 200. A series of dilution of the tubulin dimers was then added into the capillaries. The affinity of the peptide to tubulin dimers was examined using the Monolith NT.115 instrument.
# as §1
# Figure 2 Affinity determination of the peptide to tubulin. 1 μM of the peptide and a series dilution of tubulin were added into the capillary tube, and the fluorescence intensity was then determined by a Monolith NT.115 instrument.
# [3] = target: fluorescent tau-derived peptide (FITC-Ahx-(rR)3R2-GGG-KKVAVVR); experiment: MST; 1 μM of the fluorescent peptide constant, a series dilution of tubulin dimers; Monolith NT.115, hydrophobic capillaries
compound,measurement,setting,value
"N=C(N)c1ccc(-c2cc3ccc(C(=N)N)cc3[nH]2)cc1 [4',6‐diamidino‐2‐phenylindole (DAPI), 4',6‐diamidino‐2‐phenylindole]",tracing microtubules in living cells (in words),[1]; due to the lack of specificity and the complexity of cellular contents,unable to trace microtubules in living cells
COc1cc2c(c(OC)c1OC)-c1ccc(OC)c(=O)cc1[C@@H](NC(C)=O)CC2 [colchicine],labeling of microtubules in living cells (in words),[1],able to label microtubules in living cells
CC(=O)O[C@H]1C(=O)[C@@]2(C)[C@H]([C@H](OC(=O)c3ccccc3)[C@]3(O)C[C@H](OC(=O)[C@H](O)[C@@H](NC(=O)c4ccccc4)c4ccccc4)C(C)=C1C3(C)C)[C@]1(OC(C)=O)CO[C@@H]1C[C@@H]2O [taxol],labeling of microtubules in living cells (in words),[1],able to label microtubules in living cells
KKVAVVR,microtubule binding (in words),microtubules; small sequence within the proline‐rich region of tau,critical for efficient microtubule binding
KKVAVVRTPP,microtubule binding (in words),microtubules; peptide with VxxVxxP motif,able to bind microtubules
"tau‐derived peptide: FITC dye, cell‐penetrating peptide (rR)3R2, spacer (GGG), microtubule recognition unit (KKVAVVR), with aminohexanoic (Ahx) acid ({FITC-Ahx}-[dR]R[dR]R[dR]RRRGGGKKVAVVR)",labeling of microtubules in solution / binding to microtubules (in words),polymerized microtubules; listed as modified heptapeptide from tau,binds microtubules specifically and noncovalently
same,labeling of microtubules in solution / binding to microtubules (in words),polymerized microtubules; listed as the peptide,able to successfully label the microtubules in solution
same,entry into living cells (in words),HeLa cells,delivered successfully into HeLa cells
same,tracing of microtubule filaments in living cells (in words),[2],no clear microtubule filaments were observed
same,binding to tubulin dimers (in words),tubulin dimers,specifically bound to tubulin
same,binding to tubulin dimers (in words),tubulin dimers; listed as the peptide,bound tubulin dimers in a dose‐dependent manner; also recorded: relatively low affinity
same,disassociation constant (Kd) of the peptide with tubulin,"tubulin dimers; Monolith NT.115, hydrophobic capillaries",4.68 ± 0.08 µM
tubulin dimers purified from HeLa cells (from UniProt P68363 1-451; P07437 1-444) (complex),pKd,[3],5.33
